Reference: article PMC3071371, “Trypanosoma brucei Glycogen Synthase Kinase-3, A Target for Anti-Trypanosomal Drug Development: A Public-Private Partnership to Identify Novel Leads” (PLoS Neglected Tropical Diseases, 2011)
Entries after “also recorded” stand apart in the source; their conditions may differ.

Legend:
TbruGSK-3 short = molecular target: T1, TbruGSK-3 short (Trypanosoma brucei brucei, UniProt Q388M1); experiment: TbruGSK-3 short Kinase-Glo luminescent ATP depletion assay; assay type: biochemical; conditions: mean of at least 2 replicates; 2 µM ATP; read-out: Tbru GSK-3 short IC50
T1 construct: made in house
T1 sequence (Q388M1 1-352): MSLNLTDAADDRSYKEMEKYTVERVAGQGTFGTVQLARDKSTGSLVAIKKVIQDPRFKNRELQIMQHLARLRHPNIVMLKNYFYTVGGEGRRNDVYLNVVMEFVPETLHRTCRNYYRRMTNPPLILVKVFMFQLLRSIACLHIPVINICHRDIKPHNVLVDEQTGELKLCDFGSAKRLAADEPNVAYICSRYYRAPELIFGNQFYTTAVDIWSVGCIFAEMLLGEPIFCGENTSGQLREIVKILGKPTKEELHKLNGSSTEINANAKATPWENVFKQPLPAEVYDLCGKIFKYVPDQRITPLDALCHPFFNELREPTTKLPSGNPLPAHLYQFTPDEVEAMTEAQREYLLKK
Excerpt: Recombinant TbruGSK-3 short (accession number Tb10.161.3140) was produced at the University of Washington and shipped to Pfizer, Sandwich, UK for testing. Kinase-Glo reagent (Promega) was used as previously described. This luciferase coupled assay, which provides a luminescent quantification of ATP […] during the kinase reaction, was modified to a 384-well plate screening format. A selected library of 16,540 compounds comprising known HsGSK-3 beta inhibitors and close structural analogues was screened at 10 µM final assay concentration. Assay plates were prepared by dispensing 0.2 µL of compound (dissolved in 100% DMSO) from master plates into white 384-well plates (Greiner bio one). Primary screening was conducted in a 20 µL reaction volume. Enzyme was added to each well to a final concentration of 3.8 nM in a volume of 10 µl using a Multidrop Combi dispenser (Thermo Scientific) and the plates were incubated for 15 minutes at room temperature (RT). Glycogen synthase peptide 2 (BioGSP2; Sigma) and ATP, were dissolved in 20% acetonitrile and 1 M Tris-HCl pH 7.6 respectively, then diluted in assay buffer to a final concentration of 3.2 µM BioGSP2 and 2 µM ATP. The assay buffer consisted of 25 mM Tris-HCl pH 7.5, 10 mM MgCl2, 5 mM DTT, 0.1 mg/mL BSA, 2 U/mL Heparin and 10 µM EDTA. The reaction was initiated by adding 10 µL of the substrate mixture to each well and allowed to proceed at RT for 2 h. Twenty microlitres of Kinase-Glo reagent was added to quench the reaction. Luminescence was measured after 1 h at a 100 millisecond/well integration time using the Acquest Multimode plate reader (Molecular Devices). Each plate included a positive control (4 µM GW8510, Sigma) and negative control (1% DMSO). […] The data was analysed using Pfizer SIGHTS software and visualised using Spotfire software (TIBCO). Five separate 384-well plates were screened in duplicate to assess the assay reproducibility.

[1] = Cytotoxicity against MRC-5 cell line, resazurin; assay type: cell-based, human; conditions: human, MRC-5 fetal lung fibroblast cells; 72 hours incubation
Experimental: (§1) Compounds with TbruGSK-3 short IC50<100 nM were tested for their ability to inhibit the proliferation of T. brucei (blood stage form). Cytotoxicity testing against human fetal lung fibroblast MRC-5 cell line was also performed. Both assays were carried out with compound concentrations up to 64 µM at the Laboratory for Microbiology, Parasitology and Hygiene, University of Antwerp (www.ua.ac.be). Briefly, T. brucei trypomastigotes (Squib-427 strain, suramin-sensitive) were cultured in Hirumi-9 medium supplemented with 10% fetal calf serum at 1.5×10^4 trypomastigotes per well. Following 72 hours incubation, parasite growth was assessed fluorimetrically by addition of resazurin. For cytotoxicity evaluation, 10^4 MRC-5 cells/well were seeded onto the test plates containing the pre-diluted compounds and incubated at 37°C with 5% CO2 for 72 hours. Cell viability was determined fluorimetrically after addition of resazurin [24], [25]. Single point kinase panel screening was also conducted on selected compounds at 10 µM by Invitrogen (www.Invitrogen.com) and University of Dundee, UK (www.dundee.ac.uk).

[2] = tested on: T. brucei trypomastigotes (Squib-427 strain); experiment: T. brucei blood stage proliferation, resazurin; assay type: cell-based; conditions: Trypanosoma brucei; blood stage form, 72 hours incubation; read-out: Tbru parasite EC50
Experimental: as §1

HsGSK-3 beta = molecular target: T2, HsGSK-3 beta (Homo sapiens, UniProt P49841); experiment: Human GSK-3 beta inhibition (Pfizer data files or Omnia Kinase Assay); assay type: biochemical; conditions: recovered from Pfizer data files or Omnia Kinase Assay, mean of at least 2 replicates
T2 construct: purchased Invitrogen
T2 sequence (P49841 whole entry): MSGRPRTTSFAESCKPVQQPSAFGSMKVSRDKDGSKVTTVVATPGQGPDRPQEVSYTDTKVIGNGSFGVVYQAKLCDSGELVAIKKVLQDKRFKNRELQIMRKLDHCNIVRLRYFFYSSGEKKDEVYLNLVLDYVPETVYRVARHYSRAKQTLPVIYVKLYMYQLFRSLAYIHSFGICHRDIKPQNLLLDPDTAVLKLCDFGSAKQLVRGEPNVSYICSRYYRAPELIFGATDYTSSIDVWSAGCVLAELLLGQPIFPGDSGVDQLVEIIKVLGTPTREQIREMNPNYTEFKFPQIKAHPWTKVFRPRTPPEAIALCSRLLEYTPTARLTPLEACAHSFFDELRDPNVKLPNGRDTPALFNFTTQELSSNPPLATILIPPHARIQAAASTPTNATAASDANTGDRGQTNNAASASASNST
Experimental: Human GSK-3 beta inhibition data (IC50) for many of the compounds were recovered from Pfizer data files. If historical data were not available, the compounds were tested in an assay using 10 nM HsGSK-3 beta (Invitrogen) using Omnia Kinase Assay (Invitrogen) according to the manufacturer's instructions. The reaction volume was 20 µL and a range of compound concentrations were tested, up to a maximum of 40 µM. Briefly, 5 µl of HsGSK-3 beta was dispensed into black 384 assay plates (Greiner bio one) containing 0.2 µl of compounds. The enzyme was incubated with the compounds for 15 minutes at 30°C then 15 µl of substrate mixture was added to each well to commence the reaction. The substrate mixture consisted of 2 µL each of 2× kinase reaction buffer, 10 µM Omina peptide substrate, 0.2 mM DTT and 10 µM ATP, and 7 µL of ultra pure water. The reaction was allowed to proceed for 30 minutes at 30°C. Increase in fluorescence levels indicating peptide phosphorylation by the enzyme was monitored using an Envision (PerkinElmer) with λex 360/λem 485 nm and the data were analysed using Pfizer software SIGHTS and Spotfire (TIBCO).

[3] = tested on: panel of approximately 40 human kinases; experiment: Single point human kinase panel screening; assay type: biochemical; conditions: 10 µM
Experimental: as §1

CaCo2 cell = CaCo2 cell flux assay; assay type: in vitro ADME; conditions: data not shown
[4] = tested on: human fetal lung fibroblast MRC-5 cell line; experiment: Cytotoxicity against MRC-5 cell line, resazurin; assay type: cell-based; conditions: ratio of EC50s
Experimental: as §1

Structure (SMILES)	IC50 (TbruGSK-3 short) [nM]	EC50 [2] [nM]	IC50 (HsGSK-3 beta) [nM]	cell permeability in CaCo2 cell flux assay (CaCo2 cell)	number of other kinases with >50% inhibition [3]	EC50 at 72 h [1] [nM]	human kinase panel specificity (in words) [3]	selectivity window between T. brucei activity and activity on MRC5 cells [4] [fold]
CS(=O)(=O)c1ccc(S(=O)(=O)Nc2ccc3c(Cl)c(C(=O)N4CCc5ccccc5C4)sc3c2)cc1 [AG-02449]	69	130	–	–	–	620	–	–
CNCc1cncc(-c2ccc3[nH]nc(-c4nc5ccccc5[nH]4)c3c2)c1C [AG-024290]	62	130	173	–	–	130	–	–
CCc1nn(CCC(=O)Nc2cc([C@H]3C[C@@H](NC(C)=O)C3)[nH]n2)c2ccccc12 [CE-160042]	142	> 25000	32	no detectable cell permeability	–	–	highly specific and only inhibited HsGSK-3 beta; also recorded: no significant inhibition of any other kinases	–
CCCC1=C(C#N)C(c2cccc3nonc23)c2cn[nH]c2N1 (centres unmarked) [CE-309608]	21	2690	46	–	–	16000	–	–
O=C(NC1CCN(C(=O)Cc2ccccc2)C1)c1ccc2[nH]nc(-c3nc4ccccc4[nH]3)c2c1 (centres unmarked) [CE-317112]	99	1140	3	–	–	39400	–	35
CC(C)C(=O)Nc1cc([C@H]2C[C@@H](OC(=O)NCc3ccccc3Cl)C2)[nH]n1 [CE-324998]	93	230	1	–	–	1220	–	–
CC(C)C(=O)Nc1cc([C@H]2C[C@@H](OC(=O)NCc3cccc(C(F)(F)F)c3F)C2)[nH]n1 [CE-325011]	94	1050	5	–	–	2320	–	–
CC(C)C(=O)Nc1cc([C@H]2C[C@@H](OC(=O)N(C)Cc3ccccc3)C2)[nH]n1 [CE-325692]	65	640	2	–	–	4670	–	–
O=c1ccc2cnc(Nc3ccccc3)nc2n1C1CC2CCC1C2 (centres unmarked) [compound 0180532]	7270	–	60	–	4	–	–	–
O=c1ccc2cnc(Nc3ccc(N4CCC(CCCO)CC4)cc3)nc2n1C1CCCC1 [compound 0181276]	600	–	4290	–	–	–	relatively specific against the wider human kinase panel	–

Further lines, with some results ahead:

IC50 (TbruGSK-3 short) [nM]	EC50 [2] [nM]	IC50 (HsGSK-3 beta) [nM]	cell permeability in CaCo2 cell flux assay (CaCo2 cell)	number of other kinases with >50% inhibition [3]	Structure (SMILES)	EC50 at 72 h [1] [nM]	human kinase panel specificity (in words) [3]	selectivity window between T. brucei activity and activity on MRC5 cells [4] [fold]
67	2450	3	–	–	CCC(C(=O)Nc1cc([C@H]2C[C@@H](OC(=O)NCc3ccccn3)C2)[nH]n1)c1ccccc1 (some centres unmarked) [PF-00305135]	930	–	–
70	130	< 1000	–	–	CN(C)C[C@@H](NC(=O)c1ccc2[nH]nc(-c3nc4ccccc4[nH]3)c2c1)c1ccccc1 [PF-00744923]	130	–	–
57	130	< 1000	–	–	Cc1cc2nc(N3CCc4nc[nH]c(=O)c4C3)nc(Nc3cc(C4CC4)[nH]n3)c2s1 [PF-00956933]	2170	–	–
61	130	132	–	–	Cc1cc(Nc2cc[nH]n2)nc(N(C)CCc2ccncc2)n1 [PF-01242377]	1180	–	–
19	130	< 1000	–	–	CNC(=O)[C@@H]1CCCN1c1nc(Cc2cccc(C#N)c2)cc(Nc2cc(C3CC3)[nH]n2)n1 [PF-02368935]	130	–	–
62	1230	1	–	2	O=C(NCc1ccccc1)O[C@H]1C[C@@H](c2cc(NC(=O)C3CCCCC3)n[nH]2)C1 [PF-04279731]	1470	–	–
32	1130	236	–	–	O=C1NCCc2[nH]c(-c3ccnc(Nc4ccc(-n5cccn5)cc4)c3)cc21 [PF-04903528]	1130	–	–
